Key:
Assay type in all cases: cell-based
3T3-L1 adipocytes [1] = experiment: Oxygen consumption of 3T3-L1 adipocytes
Protocol: 3T3-L1 were grown in Dulbecco's Modified Eagle's Medium (Gib-co/Invitrogen, Carlsbad, Calif., USA) with 4.5 g/l glucose and 10% fetal bovine serum. Differentiation was induced in two-day-postconfluent cells by supplementing the media with 1 μM insulin, 100 nM dexamethasone, and 500 μM isobutylmethylxanthine for 48 hours, followed by media supplemented with 1 μM insulin for another 48 hours, then normal media until differentiation day 10. Oxygen consumption was measured with a Rank Brothers oxygen electrode (Rank Brothers Ltd., Cambridge, UK). Cultured cells were trypsinized, counted in a hemocytometer, spun down, and resuspended in respiration buffer (PBS, 2% BSA, 4.5 g/l glucose, 120 mg/l sodium pyruvate) to 1E6/ml. Partial oxygen pressure was recorded using a Rank Brothers digital model 10 and a PowerLab 4/30 data acquisition system (ADInstruments, Colorado Springs, Colo.).

3T3-L1 adipocytes [2] = experiment: Glucose uptake in 3T3-L1 adipocytes
Protocol: 3T3-L1 were grown in Dulbecco's Modified Eagle's Medium (Gib-co/Invitrogen, Carlsbad, Calif., USA) with 4.5 g/l glucose and 10% fetal bovine serum. Differentiation was induced in two-day-postconfluent cells by supplementing the media with 1 μM insulin, 100 nM dexamethasone, and 500 μM isobutylmethylxanthine for 48 hours, followed by media supplemented with 1 μM insulin for another 48 hours, then normal media until differentiation day 10. Fully differentiated 3T3-L1 adipocytes (day 10) in 48-well plates were serum-starved for 1 hour before incubation with Krebs-Ringer-HEPES (KRH) buffer with or without 10 nM insulin for 30 minutes, followed by addition of 1 mM, 100 nCi [3H]-2-deoxyglucose for 10 minutes. Uptake was stopped by lysing the cells with 0.1% sodium dodecyl sulfate (SDS). Lysates were transferred to liquid scintillation cocktail (Fisher […] 50% Plus) and counted in a Beckman LS counter.

3T3-L1 adipocytes [3] = experiment: Lipolysis in 3T3-L1 adipocytes (glycerol release); settings: cultured 3T3-L1 adipocytes (FIG. 13A)
Protocol: 3T3-L1 were grown in Dulbecco's Modified Eagle's Medium (Gib-co/Invitrogen, Carlsbad, Calif., USA) with 4.5 g/l glucose and 10% fetal bovine serum. Differentiation was induced in two-day-postconfluent cells by supplementing the media with 1 μM insulin, 100 nM dexamethasone, and 500 μM isobutylmethylxanthine for 48 hours, followed by media supplemented with 1 μM insulin for another 48 hours, then normal media until differentiation day 10.
Fully differentiated 3T3-L1 adipocytes (day 10) in 48-well plates were washed, and 100 μl of KRH buffer with 3% BSA and 4 g/l D-glucose with or without 100 nM isoproterenol was added to each well. After 1 hour at 37° C./5% CO2 a 50 μl aliquot from each well was transferred to a 96-well plate; 50 μl of lipolysis assay buffer (Cayman Chemical) were added, and the plate was incubated at room temperature, protected from light, for 30 min. Absorption was measured at 540 nm. A standard curve was included on each plate to allow calculation of the glycerol concentration in the supernatants.

Q: Which “oxygen consumption in differentiated 3T3-L1 adipocytes” value (3T3-L1 adipocytes [1]; FIG. 12C) does the source give for `CNC(=O)c1cccnc1` [N-methylnicotinamide] here?
A: increased

Q: What about the “oxygen consumption (FIG. 15A)” value (3T3-L1 adipocytes [1]; text: cultured hepatoma cells, legend: 3T3-L1 adipocytes) of the same molecule?
A: stimulated

Q: What about the insulin-dependent glucose uptake (3T3-L1 adipocytes [2]; 3T3-L1 adipocytes (FIG. 13B)) of the same molecule?
A: stimulated

Q: And the basal glucose uptake (3T3-L1 adipocytes [2]; no insulin (FIG. 15B))?
A: stimulated

Q: And the “submaximally insulin-induced glucose uptake” value (3T3-L1 adipocytes [2]; submax insulin (FIG. 15C))?
A: stimulated

Q: What about the “glucose uptake, co-administration with DFMO relative to DFMO alone” value (3T3-L1 adipocytes [2]; submax insulin stimulation (FIG. 15C)) of the same molecule?
A: increase

Q: And the “lipolysis (glycerol released into the culture supernatant)” value (3T3-L1 adipocytes [3])?
A: increased
